Laboratory results as given in PubChem BioAssay (NCI).
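Values below derive from 48-hour exposures of cells grown in 96-well plates, with endpoints linearly interpolated between the two concentrations bracketing the appropriate inhibition level. Abbreviation: GI50, concentration required for 50% inhibition of growth. At the TGI there is no net growth.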

Key:
Experiment in all cases: NCI-60 cell line screen, 48 h
786-0 renal = tested on: 786-0 renal
A498 renal = tested on: A498 renal
A549 NSCLC = tested on: A549 NSCLC
ACHN renal = tested on: ACHN renal
BT-549 breast = tested on: BT-549 breast
CAKI-1 renal = tested on: CAKI-1 renal
CCRF-CEM leukemia = tested on: CCRF-CEM leukemia
COLO 205 colon = tested on: COLO 205 colon
DU-145 prostate = tested on: DU-145 prostate
EKVX NSCLC = tested on: EKVX NSCLC
HCC-2998 colon = tested on: HCC-2998 colon
HCT-116 colon = tested on: HCT-116 colon
HCT-15 colon = tested on: HCT-15 colon
HL-60(TB) leukemia = tested on: HL-60(TB) leukemia
HOP-62 NSCLC = tested on: HOP-62 NSCLC
HOP-92 NSCLC = tested on: HOP-92 NSCLC
HS 578T breast = tested on: HS 578T breast
HT29 colon = tested on: HT29 colon
IGROV1 ovarian = tested on: IGROV1 ovarian
K-562 leukemia = tested on: K-562 leukemia
KM12 colon = tested on: KM12 colon
LOX IMVI melanoma = tested on: LOX IMVI melanoma
M14 melanoma = tested on: M14 melanoma
MALME-3M melanoma = tested on: MALME-3M melanoma
MCF7 breast = tested on: MCF7 breast
MDA-MB-435 = tested on: MDA-MB-435
MDA-MB-468 breast = tested on: MDA-MB-468 breast
MOLT-4 leukemia = tested on: MOLT-4 leukemia
NCI-H226 lung = tested on: NCI-H226 lung
NCI-H23 lung = tested on: NCI-H23 lung
NCI-H460 lung = tested on: NCI-H460 lung
NCI-H522 lung = tested on: NCI-H522 lung
NCI/ADR-RES ovarian = tested on: NCI/ADR-RES ovarian
OVCAR-3 ovarian = tested on: OVCAR-3 ovarian
OVCAR-4 ovarian = tested on: OVCAR-4 ovarian
OVCAR-5 ovarian = tested on: OVCAR-5 ovarian
OVCAR-8 ovarian = tested on: OVCAR-8 ovarian
PC-3 prostate = tested on: PC-3 prostate
RPMI-8226 leukemia = tested on: RPMI-8226 leukemia
RXF 393 renal = tested on: RXF 393 renal
SF-268 CNS = tested on: SF-268 CNS
SF-295 CNS = tested on: SF-295 CNS
SF-539 CNS = tested on: SF-539 CNS
SK-MEL-28 melanoma = tested on: SK-MEL-28 melanoma
SK-MEL-5 melanoma = tested on: SK-MEL-5 melanoma
SK-OV-3 ovarian = tested on: SK-OV-3 ovarian
SN12C renal = tested on: SN12C renal
SNB-19 CNS = tested on: SNB-19 CNS
SR leukemia = tested on: SR leukemia
SW-620 colon = tested on: SW-620 colon
T-47D breast = tested on: T-47D breast
TK-10 renal = tested on: TK-10 renal
U251 CNS = tested on: U251 CNS
UACC-257 melanoma = tested on: UACC-257 melanoma
UACC-62 melanoma = tested on: UACC-62 melanoma

`N#Cc1c(-c2ccc(F)cc2)nc(SCc2ccccc2)nc1N1CCNCC1` gave a GI50 (786-0 renal) of 11 µM, a TGI (786-0 renal) of 25.4 µM and a GI50 (A498 renal) of 13.1 µM. It also gave a TGI (A498 renal) of 27.3 µM, a GI50 (A549 NSCLC) of 8.1 µM and a TGI (A549 NSCLC) of 21.5 µM. It also gave a GI50 (ACHN renal) of 14 µM, a TGI (ACHN renal) of 27.5 µM and a GI50 (BT-549 breast) of 13 µM. For the same molecule, the TGI (BT-549 breast) was 26.4 µM, the GI50 (CAKI-1 renal) was 16 µM and the TGI (CAKI-1 renal) was 29.7 µM. It also gave a GI50 (CCRF-CEM leukemia) of 13.9 µM, a TGI (CCRF-CEM leukemia) of 31 µM and a GI50 (COLO 205 colon) of 1.66 µM. For the same molecule, the TGI (COLO 205 colon) was 3.17 µM, the GI50 (DU-145 prostate) was 15 µM and the TGI (DU-145 prostate) was 29 µM. The GI50 (EKVX NSCLC) was 12 µM, the TGI (EKVX NSCLC) was 24.8 µM and the GI50 (HCC-2998 colon) was 1.76 µM. For the same molecule, the TGI (HCC-2998 colon) was 3.22 µM, the GI50 (HCT-116 colon) was 3.51 µM and the TGI (HCT-116 colon) was 11.6 µM. For the same molecule, the GI50 (HCT-15 colon) was 5.05 µM, the TGI (HCT-15 colon) was 17.5 µM and the GI50 (HL-60(TB) leukemia) was 4.5 µM. The TGI (HL-60(TB) leukemia) was 17.3 µM, the GI50 (HOP-62 NSCLC) was 13.2 µM and the TGI (HOP-62 NSCLC) was 28.1 µM. The GI50 (HOP-92 NSCLC) was 4.2 µM, the TGI (HOP-92 NSCLC) was 18.1 µM and the GI50 (HS 578T breast) was 14.1 µM. For the same molecule, the TGI (HS 578T breast) was 32 µM, the GI50 (HT29 colon) was 3.3 µM and the TGI (HT29 colon) was 10.5 µM. It also gave a GI50 (IGROV1 ovarian) of 14.7 µM, a TGI (IGROV1 ovarian) of 28.9 µM and a GI50 (K-562 leukemia) of 2.21 µM. It also gave a TGI (K-562 leukemia) of 5.42 µM, a GI50 (KM12 colon) of 17.1 µM and a TGI (KM12 colon) of 32.8 µM. The GI50 (LOX IMVI melanoma) was 1.71 µM, the TGI (LOX IMVI melanoma) was 3.33 µM and the GI50 (M14 melanoma) was 12 µM. For the same molecule, the TGI (M14 melanoma) was 24.8 µM, the GI50 (MALME-3M melanoma) was 14.1 µM and the TGI (MALME-3M melanoma) was 28.2 µM. It also gave a GI50 (MCF7 breast) of 3.94 µM, a TGI (MCF7 breast) of 15.3 µM and a GI50 (MDA-MB-435) of 16.9 µM. The TGI (MDA-MB-435) was 31.5 µM, the GI50 (MDA-MB-468 breast) was 6.71 µM and the TGI (MDA-MB-468 breast) was 21.3 µM. It also gave a GI50 (MOLT-4 leukemia) of 7.07 µM, a TGI (MOLT-4 leukemia) of 21.2 µM and a GI50 (NCI-H226 lung) of 13.8 µM. The TGI (NCI-H226 lung) was 33.4 µM, the GI50 (NCI-H23 lung) was 15.1 µM and the TGI (NCI-H23 lung) was 29.3 µM. It also gave a GI50 (NCI-H460 lung) of 9.2 µM, a TGI (NCI-H460 lung) of 22.9 µM and a GI50 (NCI-H522 lung) of 11.3 µM. It also gave a TGI (NCI-H522 lung) of 25.1 µM, a GI50 (NCI/ADR-RES ovarian) of 11.7 µM and a TGI (NCI/ADR-RES ovarian) of 27.4 µM. The GI50 (OVCAR-3 ovarian) was 14.3 µM, the TGI (OVCAR-3 ovarian) was 29.1 µM and the GI50 (OVCAR-4 ovarian) was 15.7 µM. For the same molecule, the TGI (OVCAR-4 ovarian) was 34.2 µM, the GI50 (OVCAR-5 ovarian) was 14.1 µM and the TGI (OVCAR-5 ovarian) was 27.6 µM. For the same molecule, the GI50 (OVCAR-8 ovarian) was 6.21 µM, the TGI (OVCAR-8 ovarian) was 21.8 µM and the GI50 (PC-3 prostate) was 11.8 µM. It also gave a TGI (PC-3 prostate) of 25.8 µM, a GI50 (RPMI-8226 leukemia) of 3.99 µM and a TGI (RPMI-8226 leukemia) of 17.5 µM. The GI50 (RXF 393 renal) was 3.14 µM, the TGI (RXF 393 renal) was 14.8 µM and the GI50 (SF-268 CNS) was 12.9 µM. It also gave a TGI (SF-268 CNS) of 29.1 µM, a GI50 (SF-295 CNS) of 15.8 µM and a TGI (SF-295 CNS) of 30.1 µM. It also gave a GI50 (SF-539 CNS) of 15.7 µM, a TGI (SF-539 CNS) of 29.4 µM and a GI50 (SK-MEL-28 melanoma) of 16.3 µM. The TGI (SK-MEL-28 melanoma) was 30.3 µM, the GI50 (SK-MEL-5 melanoma) was 15.7 µM and the TGI (SK-MEL-5 melanoma) was 29.2 µM. It also gave a GI50 (SK-OV-3 ovarian) of 16 µM, a TGI (SK-OV-3 ovarian) of 29.5 µM and a GI50 (SN12C renal) of 13.8 µM. It also gave a TGI (SN12C renal) of 27.2 µM, a GI50 (SNB-19 CNS) of 14.2 µM and a TGI (SNB-19 CNS) of 29.3 µM. The GI50 (SR leukemia) was 1.92 µM, the TGI (SR leukemia) was 4.61 µM and the GI50 (SW-620 colon) was 3.38 µM. The TGI (SW-620 colon) was 13.1 µM, the GI50 (T-47D breast) was 10.1 µM and the TGI (T-47D breast) was 24.8 µM. The GI50 (TK-10 renal) was 14.5 µM, the TGI (TK-10 renal) was 28.4 µM and the GI50 (U251 CNS) was 4.36 µM. For the same molecule, the TGI (U251 CNS) was 16.1 µM, the GI50 (UACC-257 melanoma) was 13.1 µM and the TGI (UACC-257 melanoma) was 26.2 µM. The GI50 (UACC-62 melanoma) was 14.4 µM and the TGI (UACC-62 melanoma) was 28.2 µM.
